The target of the assay is T1, Zcchc11 enzyme (Homo sapiens, UniProt Q5TAX3).
T1 construct: made in house; host or cells: HEK293 cells (Zcchc11); E. coli Rosetta II (LIN28A)
T1 sequence (Q5TAX3 212-1420): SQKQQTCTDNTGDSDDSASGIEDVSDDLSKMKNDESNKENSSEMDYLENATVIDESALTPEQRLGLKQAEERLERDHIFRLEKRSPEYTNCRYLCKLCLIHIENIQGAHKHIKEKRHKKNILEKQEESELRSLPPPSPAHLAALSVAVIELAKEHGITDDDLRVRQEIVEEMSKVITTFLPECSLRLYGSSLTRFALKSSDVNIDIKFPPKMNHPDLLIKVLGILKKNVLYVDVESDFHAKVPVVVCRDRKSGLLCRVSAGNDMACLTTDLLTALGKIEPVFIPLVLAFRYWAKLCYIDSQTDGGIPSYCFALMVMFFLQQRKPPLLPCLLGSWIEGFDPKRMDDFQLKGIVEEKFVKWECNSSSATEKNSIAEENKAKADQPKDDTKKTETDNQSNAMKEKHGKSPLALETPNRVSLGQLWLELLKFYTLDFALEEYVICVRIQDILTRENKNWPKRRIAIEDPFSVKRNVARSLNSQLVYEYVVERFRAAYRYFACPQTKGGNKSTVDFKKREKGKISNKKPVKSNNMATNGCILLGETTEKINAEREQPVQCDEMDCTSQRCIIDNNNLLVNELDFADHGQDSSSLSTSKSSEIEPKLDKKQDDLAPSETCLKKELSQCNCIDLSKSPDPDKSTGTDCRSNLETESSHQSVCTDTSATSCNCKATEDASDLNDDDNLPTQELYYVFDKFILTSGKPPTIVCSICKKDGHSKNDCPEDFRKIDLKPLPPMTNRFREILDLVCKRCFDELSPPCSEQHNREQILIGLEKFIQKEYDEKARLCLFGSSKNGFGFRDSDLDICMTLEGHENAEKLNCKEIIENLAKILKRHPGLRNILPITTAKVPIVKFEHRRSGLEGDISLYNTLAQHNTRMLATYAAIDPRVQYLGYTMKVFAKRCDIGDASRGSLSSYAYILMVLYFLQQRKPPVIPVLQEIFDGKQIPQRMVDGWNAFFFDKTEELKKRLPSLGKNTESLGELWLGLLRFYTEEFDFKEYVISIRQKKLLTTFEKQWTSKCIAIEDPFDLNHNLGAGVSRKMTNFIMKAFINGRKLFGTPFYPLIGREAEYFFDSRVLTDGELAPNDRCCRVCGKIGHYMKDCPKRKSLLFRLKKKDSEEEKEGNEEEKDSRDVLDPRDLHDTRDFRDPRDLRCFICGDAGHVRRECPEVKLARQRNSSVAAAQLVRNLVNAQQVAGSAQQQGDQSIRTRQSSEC
Description: TUTase assay (Zcchc11 assay, Lin28a-dependent polyuridylation of pre-let-7). The assay is classed as biochemical. Particulars: read-out: Potency Lin28a-dep Z11 IC50. In short, it runs like this:
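Potency is measured as inhibition of LIN28A-driven U-tail addition to 2 nM pre-let-7 by 0.2 nM HEK293-derived Zcchc11 fragment with 5 uM UTP at room temperature. Tail growth appears as fluorescein quenching by an annealing rhodamine-A20 probe.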

[1] abbreviates: Lin28a-dependent Zcchc11 (Z11) TUTase activity.
[2] abbreviates: LIN28A 10 nM, Zcchc11 0.2 nM, 5′-fluorescein pre-let-7 miRNA 2 nM, UTP 5 uM, room temperature, 30 minutes pre-incubation.

A word on the IC50: it is the concentration that inhibits the measured activity by half.

Each structure is given as a SMILES string. Read-outs that look alike come from different tables or passages of the source.

As for `CN(C)C1CN(c2ccc(-n3cc(C(=O)O)c(=O)c4cc(Cl)c(N5CCC(C)(C)[C@@H]5COc5ncccc5Cl)cc43)cn2)C1` [Compound 351, (R)-6-chloro-7-(2-(((3-chloropyridin-2-yl)oxy)methyl)-3,3-dimethyl-pyrrolidin-1-yl)-1-(6-(3-(dimethyl-amino)azetidin-1-yl)pyridin-3-yl)-4-oxo-1,4-dihydro-quinoline-3-carboxylic acid], under setting [1], the IC50 was no more than 1 µM.

`COc1ccc(Cl)c(OC[C@H]2CC(c3cn[nH]c3)CN2c2cc3c(cc2F)c(=O)c(C(=O)O)cn3-c2ccc(N3CC(N(C)C)C3)nc2)n1` (stereo partly drawn) [Compound 352, 7-((2R)-2-(((3-chloro-6-methoxy-pyridin-2-yl)oxy)methyl)-4-(1H-pyrazol-4-yl)pyrrolidin-1-yl)-1-(6-(3-(dimethyl-amino)azetidin-1-yl)pyridin-3-yl)-6-fluoro-4-oxo-1,4-dihydro-quinoline-3-carboxylic acid compound with formic acid (1:1)]: the concentration for half-maximal inhibition (IC50) under setting [1] is no more than 1 µM.

Turning to `Cc1c(F)c(N2CCC[C@@H]2COc2ccccn2)cc2c1c(=O)c(C(=O)O)cn2C1CC1` [Example 1, (R)-1-cyclopropyl-6-fluoro-5-methyl-4-oxo-7-(2-((pyridin-2-yloxy)methyl)pyrrolidin-1-yl)-1,4-dihydroquinoline-3-carboxylic acid], under setting [2], the IC50 is greater than 50 µM.

`O=C(O)c1cn(-c2ncccn2)c2cc(N3CCC[C@@H]3COc3ccccn3)c(Cl)cc2c1=O` [Example 2, (R)-6-chloro-4-oxo-7-(2-((pyridin-2-yloxy)methyl)pyrrolidin-1-yl)-1-(pyrimidin-2-yl)-1,4-dihydroquinoline-3-carboxylic acid]: the IC50 under setting [2] lay within 1 to 10 µM.

For the compound `COc1c(N2CCC[C@@H]2COc2ccccn2)c(F)cc2c(=O)c(C(=O)O)cn(C3CC3)c12` [Example 3, (R)-1-cyclopropyl-6-fluoro-8-methoxy-4-oxo-7-(2-((pyridin-2-yloxy)methyl)pyrrolidin-1-yl)-1,4-dihydroquinoline-3-carboxylic acid], the IC50 under setting [2] is greater than 50 µM.

As to `O=C(O)c1cn(-c2ccccc2)c2cc(N3CCC[C@@H]3COc3ccccc3)c(F)cc2c1=O` [Example 4, (R)-6-fluoro-4-oxo-7-(2-(phenoxymethyl)pyrrolidin-1-yl)-1-phenyl-1,4-dihydroquinoline-3-carboxylic acid], under setting [2], the IC50 was greater than 50 µM.

For the compound `Cc1cccnc1OC[C@H]1CCCN1c1cc2c(cc1F)c(=O)c(C(=O)O)cn2-c1ccccc1` [Example 5, (R)-6-fluoro-7-(2-(((3-methylpyridin-2-yl)oxy)methyl)pyrrolidin-1-yl)-4-oxo-1-phenyl-1,4-dihydroquinoline-3-carboxylic acid], the IC50 under setting [2] is no more than 1 µM.

On to `CCc1cccnc1OC[C@H]1CCCN1c1cc2c(cc1F)c(=O)c(C(=O)O)cn2-c1ccccc1` [Example 6, (R)-7-(2-(((3-ethylpyridin-2-yl)oxy)methyl)pyrrolidin-1-yl)-6-fluoro-4-oxo-1-phenyl-1,4-dihydroquinoline-3-carboxylic acid], for which, under setting [2], the IC50 is greater than 50 µM.

Consider `Cc1cccnc1OC[C@H]1CC(C)CN1c1cc2c(cc1F)c(=O)c(C(=O)O)cn2-c1ccc(O)cc1` (stereo partly drawn) [Example 7, 6-fluoro-1-(4-hydroxyphenyl)-7-((2R)-4-methyl-2-(((3-methylpyridin-2-yl)oxy)methyl)pyrrolidin-1-yl)-4-oxo-1,4-dihydroquinoline-3-carboxylic acid], for which, under setting [2], the IC50 is no more than 1 µM.

For the compound `CC(Oc1ncccc1Cl)[C@H]1CCCN1c1cc2c(cc1Cl)c(=O)c(C(=O)O)cn2-c1ccccc1` (stereo partly drawn) [Example 8, (R)-6-chloro-7-(2-(1-((3-chloropyridin-2-yl)oxy)ethyl)pyrrolidin-1-yl)-4-oxo-1-phenyl-1,4-dihydroquinoline-3-carboxylic acid], under setting [2], the IC50 was 1 to 10 µM.

As for `CC1(n2cc(C(=O)O)c(=O)c3cc(Cl)c(N4CCC[C@@H]4COc4ncccc4Cl)c(F)c32)CC1` [Example 9, (R)-6-chloro-7-(2-(((3-chloropyridin-2-yl)oxy)methyl)pyrrolidin-1-yl)-8-fluoro-1-(1-methylcyclopropyl)-4-oxo-1,4-dihydroquinoline-3-carboxylic acid], the IC50 under setting [2] is 1 to 10 µM.

As for `CN(C[C@H]1CCCN1c1cc2c(cc1F)c(=O)c(C(=O)O)cn2-c1ccc(O)cc1)c1ncccc1Cl` [Example 10, (R)-7-(2-(((3-chloropyridin-2-yl)(methyl)amino)methyl)pyrrolidin-1-yl)-6-fluoro-1-(4-hydroxyphenyl)-4-oxo-1,4-dihydroquinoline-3-carboxylic acid], under setting [2], the IC50 lay in the range of 1 to 10 µM.

Consider `O=C(O)c1cn(-c2ccc(O)cc2)c2cc(N3CCC[C@@H]3Cn3ccc4ncccc43)c(F)cc2c1=O` [Example 11, (R)-7-(2-((1H-pyrrolo[3,2-b]pyridin-1-yl)methyl)pyrroledin-1-yl)-6-fluoro-1-(4-hydroxyphenyl)-4-oxo-1,4-dihydroquinoline-3-carboxylic acid], for which the IC50 under setting [2] was no more than 1 µM.

Turning to `O=C(O)c1cn(-c2ccc(O)cc2)c2cc(N3CCC[C@@H]3COc3cc4[nH]ccc4cn3)c(F)cc2c1=O` [Example 12, (R)-7-(2-(((1H-pyrrolo[3,2-c]pyridine-6-yl)oxy)methyl)pyrrolidin-1-yl)-6-fluoro-1-(4-hydroxyphenyl)-4-oxo-1,4-dihydroquinoline-3-carboxylic acid], under setting [2], the IC50 was no more than 1 µM.

With `Cc1cccnc1OC[C@H]1CCCN1c1cc2c(cc1F)c(=O)c(C(=O)O)cn2-c1ccc(N)nc1` [Example 13, (R)-1-(6-aminopyridin-3-yl)-6-fluoro-7-(2-(((3-methylpyridin-2-yl)oxy)methyl)pyrrolidin-1-yl)-4-oxo-1,4-dihydroquinoline-3-carboxylic acid], under setting [2], the half-maximal inhibitory concentration (IC50) was no more than 1 µM.

Take `Cc1cccnc1OC[C@H]1CCCN1c1cc2c(cc1F)c(=O)c(C(=O)O)cn2C1CCOCC1` [Example 14, 6-fluoro-7-[(2R)-2-[[(3-methylpyridin-2-yl)oxy]methyl]pyrrolidin-1-yl]-1-(oxan-4-yl)-4-oxoquinoline-3-carboxylic acid]: the IC50 under setting [2] is no more than 1 µM.

As to `Cc1cccnc1OC[C@H]1CCCN1c1cc2c(cc1F)c(=O)c(C(=O)O)cn2-c1cnccn1` [Example 15, (R)-6-fluoro-7-(2-(((3-methylpyridin-2-yl)oxy)methyl)pyrrolidin-1-yl)-4-oxo-1-(pyrazin-2-yl)-1,4-dihydroquinoline-3-carboxylic acid], the concentration for half-maximal inhibition (IC50) under setting [2] was no more than 1 µM.

As to `CN(C)CCOc1cnc(-n2cc(C(=O)O)c(=O)c3cc(F)c(N4CCC[C@@H]4COc4ncccc4Cl)cc32)cn1` [Example 16, (R)-7-(2-(((3-chloropyridin-2-yl)oxy)methyl)pyrrolidin-1-yl)-1-(5-(2-(dimethylamino)ethoxy)pyrazin-2-yl)-6-fluoro-4-oxo-1,4-dihydroquinoline-3-carboxylic acid], the IC50 under setting [2] was no more than 1 µM.

With `Cc1cccnc1OC[C@H]1CCCN1c1cc2c(cc1F)c(=O)c(C(=O)O)cn2-c1ccc(OCCN(C)C)cc1` [Example 17, (R)-1-(4-(2-(dimethylamino)ethoxy)phenyl)-6-fluoro-7-(2-(((3-methylpyridin-2-yl)oxy)methyl)pyrrolidin-1-yl)-4-oxo-1,4-dihydroquinoline-3-carboxylic acid], the IC50 under setting [2] was no more than 1 µM.

In the case of `O=C(O)c1cn(-c2ccc3c(c2)COC3)c2cc(N3CCC[C@@H]3COc3ncccc3Cl)c(Cl)cc2c1=O` [Example 18, (R)-6-chloro-7-(2-(((3-chloropyridin-2-yl)oxy)methyl)pyrrolidin-1-yl)-1-(1,3-dihydroisobenzofuran-5-yl)-4-oxo-1,4-dihydroquinoline-3-carboxylic acid], the half-inhibitory concentration (IC50) under setting [2] was no more than 1 µM.

For `O=C(O)c1cn(-c2cnccn2)c2nc(N3CCC[C@@H]3COc3ncccc3Cl)c(Cl)cc2c1=O` [Example 19, (R)-6-chloro-7-(2-(((3-chloropyridin-2-yl)oxy)methyl)pyrrolidin-1-yl)-4-oxo-1-(pyrazin-2-yl)-1,4-dihydro-1,8-naphthyridine-3-carboxylic acid], the IC50 under setting [2] was no more than 1 µM.

The values are drawn from US12662491B2 (Redona Therapeutics, Inc., priority 2020, dated 2026).
